Laboratory results from PubChem BioAssay (NCI).
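These data come from cells grown in 96-well plates and exposed to compound for 48 hours at five concentrations. TGI denotes the concentration required for complete inhibition of growth.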

Experiments:
Test in all cases: NCI tumour cell line growth inhibition, 48 h
786-0 renal = test system: 786-0 renal
A498 renal = test system: A498 renal
A549 NSCLC = test system: A549 NSCLC
ACHN renal = test system: ACHN renal
BT-549 breast = test system: BT-549 breast
CAKI-1 renal = test system: CAKI-1 renal
COLO 205 colon = test system: COLO 205 colon
DU-145 prostate = test system: DU-145 prostate
EKVX NSCLC = test system: EKVX NSCLC
HCC-2998 colon = test system: HCC-2998 colon
HCT-116 colon = test system: HCT-116 colon
HCT-15 colon = test system: HCT-15 colon
HOP-62 NSCLC = test system: HOP-62 NSCLC
HOP-92 NSCLC = test system: HOP-92 NSCLC
HS 578T breast = test system: HS 578T breast
HT29 colon = test system: HT29 colon
IGROV1 ovarian = test system: IGROV1 ovarian
K-562 leukemia = test system: K-562 leukemia
KM12 colon = test system: KM12 colon
LOX IMVI melanoma = test system: LOX IMVI melanoma
M14 melanoma = test system: M14 melanoma
MALME-3M melanoma = test system: MALME-3M melanoma
MCF7 breast = test system: MCF7 breast
MDA-MB-231 breast = test system: MDA-MB-231 breast
MDA-MB-435 = test system: MDA-MB-435
MDA-N = test system: MDA-N
MOLT-4 leukemia = test system: MOLT-4 leukemia
NCI-H226 lung = test system: NCI-H226 lung
NCI-H23 lung = test system: NCI-H23 lung
NCI-H460 lung = test system: NCI-H460 lung
NCI-H522 lung = test system: NCI-H522 lung
NCI/ADR-RES ovarian = test system: NCI/ADR-RES ovarian
OVCAR-3 ovarian = test system: OVCAR-3 ovarian
OVCAR-4 ovarian = test system: OVCAR-4 ovarian
OVCAR-5 ovarian = test system: OVCAR-5 ovarian
OVCAR-8 ovarian = test system: OVCAR-8 ovarian
RXF 393 renal = test system: RXF 393 renal
SF-268 CNS = test system: SF-268 CNS
SF-295 CNS = test system: SF-295 CNS
SF-539 CNS = test system: SF-539 CNS
SK-MEL-2 melanoma = test system: SK-MEL-2 melanoma
SK-MEL-28 melanoma = test system: SK-MEL-28 melanoma
SK-MEL-5 melanoma = test system: SK-MEL-5 melanoma
SK-OV-3 ovarian = test system: SK-OV-3 ovarian
SN12C renal = test system: SN12C renal
SNB-19 CNS = test system: SNB-19 CNS
SNB-75 CNS = test system: SNB-75 CNS
SR leukemia = test system: SR leukemia
SW-620 colon = test system: SW-620 colon
T-47D breast = test system: T-47D breast
TK-10 renal = test system: TK-10 renal
U251 CNS = test system: U251 CNS
UACC-257 melanoma = test system: UACC-257 melanoma
UACC-62 melanoma = test system: UACC-62 melanoma
UO-31 renal = test system: UO-31 renal
CCRF-CEM leukemia = test system: CCRF-CEM leukemia
HL-60(TB) leukemia = test system: HL-60(TB) leukemia
PC-3 prostate = test system: PC-3 prostate
RPMI-8226 leukemia = test system: RPMI-8226 leukemia

Which TGI (786-0 renal) does the source give for `COc1cc(-c2nc3nc(N4CCN(C)CC4)ccc3[nH]2)c(OC)c2[nH]c(CO)nc12` here?
Its TGI is over 100 µM.

And the TGI (A498 renal)?
Its TGI is over 100 µM.

And the TGI (A549 NSCLC)?
The TGI was over 100 µM.

What about the TGI (ACHN renal) of the same compound?
Its TGI is over 100 µM.

And the TGI (BT-549 breast)?
The TGI was over 100 µM.

And the TGI (CAKI-1 renal)?
The TGI was over 100 µM.

What about the TGI (COLO 205 colon) of the same compound?
The TGI was over 100 µM.

What about the TGI (DU-145 prostate) of the same compound?
The TGI was over 100 µM.

And the TGI (EKVX NSCLC)?
The TGI was over 100 µM.

What about the TGI (HCC-2998 colon) of the same compound?
The TGI was over 100 µM.

What about the TGI (HCT-116 colon) of the same compound?
Its TGI is over 100 µM.

What about the TGI (HCT-15 colon) of the same compound?
The TGI was over 100 µM.

And the TGI (HOP-62 NSCLC)?
The TGI was over 100 µM.

And the TGI (HOP-92 NSCLC)?
The TGI was over 100 µM.

What about the TGI (HS 578T breast) of the same compound?
Its TGI is over 100 µM.

What about the TGI (HT29 colon) of the same compound?
The TGI was over 100 µM.

What about the TGI (IGROV1 ovarian) of the same compound?
Its TGI is over 100 µM.

What about the TGI (K-562 leukemia) of the same compound?
Its TGI is over 100 µM.

And the TGI (KM12 colon)?
The TGI was over 100 µM.

And the TGI (LOX IMVI melanoma)?
The TGI was over 100 µM.

And the TGI (M14 melanoma)?
The TGI was over 100 µM.

And the TGI (MALME-3M melanoma)?
The TGI was over 100 µM.

And the TGI (MCF7 breast)?
Its TGI is over 100 µM.

What about the TGI (MDA-MB-231 breast) of the same compound?
The TGI was over 100 µM.

And the TGI (MDA-MB-435)?
The TGI was over 100 µM.

What about the TGI (MDA-N) of the same compound?
The TGI was over 100 µM.

And the TGI (MOLT-4 leukemia)?
Its TGI is over 100 µM.

And the TGI (NCI-H226 lung)?
The TGI was over 100 µM.

What about the TGI (NCI-H23 lung) of the same compound?
The TGI was over 100 µM.

And the TGI (NCI-H460 lung)?
The TGI was over 100 µM.

What about the TGI (NCI-H522 lung) of the same compound?
The TGI was over 100 µM.

And the TGI (NCI/ADR-RES ovarian)?
The TGI was over 100 µM.

And the TGI (OVCAR-3 ovarian)?
The TGI was over 100 µM.

What about the TGI (OVCAR-4 ovarian) of the same compound?
Its TGI is over 100 µM.

What about the TGI (OVCAR-5 ovarian) of the same compound?
The TGI was over 100 µM.

And the TGI (OVCAR-8 ovarian)?
Its TGI is over 100 µM.

What about the TGI (RXF 393 renal) of the same compound?
The TGI was over 100 µM.

What about the TGI (SF-268 CNS) of the same compound?
Its TGI is over 100 µM.

What about the TGI (SF-295 CNS) of the same compound?
Its TGI is over 100 µM.

And the TGI (SF-539 CNS)?
The TGI was over 100 µM.

What about the TGI (SK-MEL-2 melanoma) of the same compound?
The TGI was 99.1 µM.

What about the TGI (SK-MEL-28 melanoma) of the same compound?
Its TGI is over 100 µM.

And the TGI (SK-MEL-5 melanoma)?
Its TGI is over 100 µM.

What about the TGI (SK-OV-3 ovarian) of the same compound?
The TGI was over 100 µM.

And the TGI (SN12C renal)?
Its TGI is over 100 µM.

And the TGI (SNB-19 CNS)?
The TGI was over 100 µM.

What about the TGI (SNB-75 CNS) of the same compound?
The TGI was over 100 µM.

What about the TGI (SR leukemia) of the same compound?
Its TGI is over 100 µM.

What about the TGI (SW-620 colon) of the same compound?
The TGI was over 100 µM.

And the TGI (T-47D breast)?
Its TGI is over 100 µM.

What about the TGI (TK-10 renal) of the same compound?
The TGI was over 100 µM.

What about the TGI (U251 CNS) of the same compound?
Its TGI is over 100 µM.

What about the TGI (UACC-257 melanoma) of the same compound?
Its TGI is over 100 µM.

What about the TGI (UACC-62 melanoma) of the same compound?
The TGI was over 100 µM.

What about the TGI (UO-31 renal) of the same compound?
The TGI was over 100 µM.

How did the TGI (786-0 renal) turn out when `C[C@@H](c1ccccc1)N1CN(C(=O)OCc2ccccc2)C(CO)C1=O` (stereo partly specified) was run?
The TGI was over 100 µM.

What about the TGI (A549 NSCLC) of the same compound?
The TGI was over 100 µM.

And the TGI (ACHN renal)?
Its TGI is over 100 µM.

What about the TGI (BT-549 breast) of the same compound?
Its TGI is over 100 µM.

What about the TGI (CAKI-1 renal) of the same compound?
Its TGI is over 100 µM.

What about the TGI (CCRF-CEM leukemia) of the same compound?
The TGI was over 100 µM.

And the TGI (COLO 205 colon)?
Its TGI is over 100 µM.

What about the TGI (DU-145 prostate) of the same compound?
Its TGI is over 100 µM.

And the TGI (EKVX NSCLC)?
Its TGI is over 100 µM.

What about the TGI (HCC-2998 colon) of the same compound?
The TGI was over 100 µM.

And the TGI (HCT-116 colon)?
The TGI was over 100 µM.

What about the TGI (HCT-15 colon) of the same compound?
Its TGI is over 100 µM.

What about the TGI (HL-60(TB) leukemia) of the same compound?
Its TGI is over 100 µM.

What about the TGI (HOP-62 NSCLC) of the same compound?
Its TGI is over 100 µM.

And the TGI (HS 578T breast)?
The TGI was over 100 µM.

And the TGI (HT29 colon)?
Its TGI is over 100 µM.

What about the TGI (IGROV1 ovarian) of the same compound?
Its TGI is over 100 µM.

What about the TGI (K-562 leukemia) of the same compound?
Its TGI is over 100 µM.

And the TGI (KM12 colon)?
Its TGI is over 100 µM.

What about the TGI (LOX IMVI melanoma) of the same compound?
The TGI was over 100 µM.

And the TGI (M14 melanoma)?
The TGI was over 100 µM.

And the TGI (MALME-3M melanoma)?
The TGI was over 100 µM.

What about the TGI (MCF7 breast) of the same compound?
Its TGI is over 100 µM.

And the TGI (MDA-MB-231 breast)?
Its TGI is over 100 µM.

What about the TGI (MDA-MB-435) of the same compound?
The TGI was over 100 µM.

What about the TGI (MDA-N) of the same compound?
The TGI was over 100 µM.

And the TGI (MOLT-4 leukemia)?
Its TGI is over 100 µM.

What about the TGI (NCI-H226 lung) of the same compound?
The TGI was over 100 µM.

And the TGI (NCI-H23 lung)?
The TGI was over 100 µM.

And the TGI (NCI-H460 lung)?
Its TGI is over 100 µM.

And the TGI (NCI-H522 lung)?
The TGI was over 100 µM.

What about the TGI (NCI/ADR-RES ovarian) of the same compound?
Its TGI is over 100 µM.

What about the TGI (OVCAR-3 ovarian) of the same compound?
The TGI was over 100 µM.

And the TGI (OVCAR-4 ovarian)?
The TGI was over 100 µM.

What about the TGI (OVCAR-5 ovarian) of the same compound?
The TGI was over 100 µM.

And the TGI (OVCAR-8 ovarian)?
The TGI was over 100 µM.

And the TGI (PC-3 prostate)?
The TGI was over 100 µM.

What about the TGI (RPMI-8226 leukemia) of the same compound?
The TGI was over 100 µM.

And the TGI (RXF 393 renal)?
Its TGI is over 100 µM.

And the TGI (SF-268 CNS)?
Its TGI is over 100 µM.

And the TGI (SF-295 CNS)?
Its TGI is over 100 µM.

And the TGI (SF-539 CNS)?
The TGI was over 100 µM.

What about the TGI (SK-MEL-2 melanoma) of the same compound?
Its TGI is over 100 µM.

And the TGI (SK-MEL-28 melanoma)?
The TGI was over 100 µM.

What about the TGI (SK-MEL-5 melanoma) of the same compound?
The TGI was over 100 µM.

What about the TGI (SK-OV-3 ovarian) of the same compound?
The TGI was over 100 µM.

And the TGI (SN12C renal)?
Its TGI is over 100 µM.

And the TGI (SNB-19 CNS)?
Its TGI is over 100 µM.

What about the TGI (SNB-75 CNS) of the same compound?
Its TGI is over 100 µM.

And the TGI (SR leukemia)?
The TGI was over 100 µM.

And the TGI (SW-620 colon)?
The TGI was over 100 µM.

And the TGI (T-47D breast)?
Its TGI is over 100 µM.

And the TGI (TK-10 renal)?
Its TGI is over 100 µM.

What about the TGI (U251 CNS) of the same compound?
The TGI was over 100 µM.

What about the TGI (UACC-257 melanoma) of the same compound?
The TGI was over 100 µM.

What about the TGI (UACC-62 melanoma) of the same compound?
Its TGI is over 100 µM.
